# In patent publication US20080057529A1, “Method for Identifying Histone Deacetylase Inhibitors” (priority 2003, published 2008):
# pEC50: −log10 of the molar value.
# Assays:
# Assay type in all cases: cell-based, human
# p21 minimal promoter [1] = experiment: Transient transfection of HeLa cells with p21m-SEAP reporter plasmid, SEAP activity; conditions: Table 5, Apicidin 1 μM, TSA 300 nM; for SEAP (fold ind) / SEAP norm.-bckg/RLU norm (fold ind): vs DMSO
# Experimental: To determine whether the p21 minimal promoter was responsive to HDAC inhibitors, a reporter plasmid containing the secreted alkaline phosphatase gene (SEAP) operably linked to the p21 minimal promoter (−182 through +25), pcDNA3-21m-SEAP, was tested in transient transfection experiments of HeLa cells. […] All data summarized in Tables 4 through 7 were obtained by normalizing the total amount of transfected DNA to 2.1 μg using a promoterless plasmid.
# p21 minimal promoter [2] = experiment: Fluorometric β-lactamase activity assay in stable HeLa clone 1.17 (p21m-BLA)
# Experimental: All clones were screened for the presence of stably and functional integrated copies of the p21m-BLA reporter gene transcription cassette by performing a fluorometric β-lactamase activity assay after treatment with the HDAC inhibitor Apicidin at a concentration of 1 μM (saturating dose representing 100% of Bla gene activation, i.e., 100% of HDAC inhibition). A 100 μL aliquot of cells for each stable transformant in complete DMEM was plated into a well of a 96 well plate at about 36,000 cells per well for treatment with 1 μM Apicidin (saturating dose) and a 100 μL aliquot of cells was plated into a well of a 96 well plate at 24,000 cells per well for treatment with DMSO (vehicle control). […] After 4 hours, 25 μL of complete DMEM containing Apicidin at 5× final concentration or DMSO (5%) was added to each of the wells. The cells were then grown at 37° C., 5% CO2 for about 12 to 16 hours. Afterwards, the medium was removed and 100 μL of DMEM without serum and 25 μL of FRET labeled CCF2-AM Bla substrate diluted in the appropriate buffer according to the manufacturer recommendations were each added to the cells to give a final concentration of 1 μM CCF2-AM.
# endogenous p21 = experiment: Induction of endogenous p21 in HeLa cells, immunoblot; conditions: Homo sapiens, 13 hour treatment, immunoblot densitometry, read-out: Endogenous p2 EC50
# Experimental: (§1) Induction of endogenous p21 and acetylation of core histones (inhibition of HDAC activity) was as follows. Dose-response experiments were performed in HeLa cells with different classes of known HDAC inhibitors. […] An α-tubulin-specific antibody (Sigma, St. Louis, Mo.; catalog number: T9026) was used as an internal standard. Quantitative data were obtained by densitometric analysis of X-ray films and were normalized for the internal standard values.
# [3] = tested on: HDAC activity (acetylated histone H3); experiment: Acetylation of core histones (inhibition of HDAC activity) in HeLa cells, acetylated histone H3 immunoblot; conditions: Homo sapiens, HeLa, 13 h, read-out: AcH3 EC50
# Experimental: as §1
# HeLa cells = experiment: Cell death in transiently transfected HeLa cells; conditions: after 6 hours; TSA 300 nM, Apicidin 1 μM; transfected HeLa cells
# Experimental: The p21m-BLA reporter plasmid was tested in transient transfection experiments of HeLa cells to evaluate the responsiveness of the minimal p21 promoter and the Bla reporter system to known HDAC inhibitors. In the first two transfection experiments, HeLa cells were transfected with 1 or 2 μg of Bla reporter plasmid containing either p21 minimal promoter (p21m-BLA) or CMV promoter (CMV-BLA) and 0.1 μg of pCMV-Luc or pRSV-Luc control plasmids. Different DNA-FUGENE transfection reagent ratios were tested (FUGENE is available from Roche Applied Science, Indianapolis, Ind.). […] Data are summarized below in Tables 1 and 2.
# The percentage of β-lactamase-positive cells increased with time independent of the presence of HDAC inhibitors and was constantly higher with p21m-BLA than with pCMV-BLA.
# CMV promoter = experiment: Luc activity of co-transfected pCMV-Luc control plasmid in HeLa cells; conditions: TSA 300 nM, Apicidin 1 μM; for RLU/mg / Fold Ind. RLU: Table 3; for Fold Ind. RLU: vs DMSO; for RLU norm mean / RLU/μg: Table 5; for RLU/μg: luciferase control plasmid not named
smiles,measurement,setting,value
CCC(=O)CCCCC[C@@H]1NC(=O)[C@H]2CCCCN2C(=O)[C@H]([C@@H](C)CC)NC(=O)[C@H](Cc2cn(OC)c3ccccc23)NC1=O [Apicidin],SEAP norm-bckg/RLU norm,p21 minimal promoter [1]; P21m-SEAP 0.2 μg DNA,"10,064.04"
same,SEAP (10 min),p21 minimal promoter [1]; P21m-SEAP 0.2 μg DNA (total DNA 2.1 μg),10279
same,SEAP (fold ind),p21 minimal promoter [1]; P21m-SEAP 0.2 μg DNA,3.75 fold
same,SEAP norm.-bckg/RLU norm (fold ind),p21 minimal promoter [1]; P21m-SEAP 0.2 μg DNA,16.4 fold
same,SEAP norm-bckg/RLU norm,p21 minimal promoter [1]; P21m-SEAP 0.5 μg DNA,"24,280.99"
same,SEAP (10 min),p21 minimal promoter [1]; P21m-SEAP 0.5 μg DNA (total DNA 2.1 μg),16014
same,SEAP (fold ind),p21 minimal promoter [1]; P21m-SEAP 0.5 μg DNA,6.25 fold
same,SEAP norm.-bckg/RLU norm (fold ind),p21 minimal promoter [1]; P21m-SEAP 0.5 μg DNA,17.9 fold
same,SEAP norm-bckg/RLU norm,p21 minimal promoter [1]; P21m-SEAP 1 μg DNA,"68,122.56"
same,SEAP (10 min),p21 minimal promoter [1]; P21m-SEAP 1 μg DNA (total DNA 2.1 μg),48928
same,SEAP (fold ind),p21 minimal promoter [1]; P21m-SEAP 1 μg DNA,6.8 fold
same,SEAP norm.-bckg/RLU norm (fold ind),p21 minimal promoter [1]; P21m-SEAP 1 μg DNA,16.9 fold
same,SEAP norm-bckg/RLU norm,p21 minimal promoter [1]; P21m-SEAP 2 μg DNA,"219,589.86"
same,SEAP (10 min),p21 minimal promoter [1]; P21m-SEAP 2 μg DNA (total DNA 2.1 μg),108562
same,SEAP (fold ind),p21 minimal promoter [1]; P21m-SEAP 2 μg DNA,4.5 fold
same,SEAP norm.-bckg/RLU norm (fold ind),p21 minimal promoter [1]; P21m-SEAP 2 μg DNA,17.3 fold
same,pEC50,"p21 minimal promoter [2]; Homo sapiens, HeLa, 13 h, read-out: p21m-Bla EC50",6.77
same,induction over DMSO (slope analysis of β-lactamase activity),"p21 minimal promoter [2]; clone 1.17, saturating amounts of Apicidin (1 μM)",~200 fold
same,pEC50,endogenous p21,7.15
same,pEC50,[3],6.96
same,Cell-death,HeLa cells,not visible
same,RLU/mg,"CMV promoter; 2 μg p21m-BLA + 0.1 μg pCMV-Luc, 6 hr treatment",79723 RLU/mg
same,Fold Ind. RLU,"CMV promoter; 2 μg p21m-BLA + 0.1 μg pCMV-Luc, 6 hr",3.6 fold
same,RLU/mg,"CMV promoter; 2 μg p21m-BLA + 0.1 μg pCMV-Luc, 12 hr treatment",183519 RLU/mg
same,Fold Ind. RLU,"CMV promoter; 2 μg p21m-BLA + 0.1 μg pCMV-Luc, 12 hr",2.45 fold
same,RLU/mg,"CMV promoter; 2 μg p21m-BLA + 0.1 μg pCMV-Luc, 24 hr treatment",131733 RLU/mg
same,Fold Ind. RLU,"CMV promoter; 2 μg p21m-BLA + 0.1 μg pCMV-Luc, 24 hr",2.9 fold
same,RLU/mg,"CMV promoter; 2 μg pCMV-BLA + 0.1 μg pCMV-Luc, 6 hr treatment",10937 RLU/mg
same,Fold Ind. RLU,"CMV promoter; 2 μg pCMV-BLA + 0.1 μg pCMV-Luc, 6 hr",2 fold
same,RLU/mg,"CMV promoter; 2 μg pCMV-BLA + 0.1 μg pCMV-Luc, 12 hr treatment",39603.5 RLU/mg
same,Fold Ind. RLU,"CMV promoter; 2 μg pCMV-BLA + 0.1 μg pCMV-Luc, 12 hr",3.6 fold
same,RLU/mg,"CMV promoter; 2 μg pCMV-BLA + 0.1 μg pCMV-Luc, 24 hr treatment",18932.5 RLU/mg
same,Fold Ind. RLU,"CMV promoter; 2 μg pCMV-BLA + 0.1 μg pCMV-Luc, 24 hr",5.3 fold
same,RLU norm mean,CMV promoter; P21m-SEAP 0 μg DNA,1.08
same,RLU/μg,CMV promoter; P21m-SEAP 0 μg DNA,"102,236.00 RLU/μg"
same,RLU norm mean,CMV promoter; P21m-SEAP 0.1 μg DNA,1.17
same,RLU/μg,CMV promoter; P21m-SEAP 0.1 μg DNA,"111,192.67 RLU/μg"
same,RLU norm mean,CMV promoter; P21m-SEAP 0.2 μg DNA,1.14
same,RLU/μg,CMV promoter; P21m-SEAP 0.2 μg DNA,"108,052.99 RLU/μg"
same,RLU norm mean,CMV promoter; P21m-SEAP 0.5 μg DNA,0.57
same,RLU/μg,CMV promoter; P21m-SEAP 0.5 μg DNA,"54,363.72 RLU/μg"
same,RLU norm mean,CMV promoter; P21m-SEAP 1 μg DNA,1.14
same,RLU/μg,CMV promoter; P21m-SEAP 1 μg DNA,"108,153.75 RLU/μg"
same,RLU norm mean,CMV promoter; P21m-SEAP 2 μg DNA,0.90
same,RLU/μg,CMV promoter; P21m-SEAP 2 μg DNA,"85,172.59 RLU/μg"
